The source of these data is ChEMBL document CHEMBL5303573, “Mapping human microbiome drug metabolism by gut bacteria and their genes” (Nature, 2019).

Molecules are shown by their SMILES.

The first data set in a line: The drug is tested on Bacteroides vulgatus strain: ATCC8482 for biotransformation. The drug concentrations were measured before and after a 12-h incubation by liquid-chromatography-coupled mass spectrometry (LC–MS). Particulars: phocaeicola vulgatus, 2 µM.
On to `CCC1(c2ccc(N)cc2)CCC(=O)NC1=O` (centres undefined) [AMINOGLUTETHIMIDE], for which the “Bacterial Biotransformation” value is given as “Compound NOT metabolized”.
With `CCCC1O[C@@H]2C[C@H]3[C@@H]4CCC5=CC(=O)C=C[C@]5(C)[C@H]4[C@@H](O)C[C@]3(C)[C@]2(C(=O)CO)O1` (some centres undefined) [BUDESONIDE], the “Bacterial Biotransformation” value was “Compound metabolized”.

For the next data set the following is noted: segatella copri, 12 h, 2 µM.
Description: The drug is tested on Prevotella copri strain: DSM18205 for biotransformation. The drug concentrations were measured before and after a 12-h incubation by liquid-chromatography-coupled mass spectrometry (LC–MS)
Take `CCC1(c2ccc(N)cc2)CCC(=O)NC1=O` (centres undefined) [AMINOGLUTETHIMIDE]: the “Bacterial Biotransformation” value was “Compound NOT metabolized”.
Turning to `CCCC1O[C@@H]2C[C@H]3[C@@H]4CCC5=CC(=O)C=C[C@]5(C)[C@H]4[C@@H](O)C[C@]3(C)[C@]2(C(=O)CO)O1` (some centres undefined) [BUDESONIDE], the “Bacterial Biotransformation” value is given as “Compound NOT metabolized”.

Another data set can be described thus: The drug is tested on Bacteroides cellulosilyticus strain: DSM14838 for biotransformation. The drug concentrations were measured before and after a 12-h incubation by liquid-chromatography-coupled mass spectrometry (LC–MS). Particulars: 2 µM.
On to `CCC1(c2ccc(N)cc2)CCC(=O)NC1=O` (centres undefined) [AMINOGLUTETHIMIDE], for which the “Bacterial Biotransformation” value is given as “Compound NOT metabolized”.
Turning to `CCCC1O[C@@H]2C[C@H]3[C@@H]4CCC5=CC(=O)C=C[C@]5(C)[C@H]4[C@@H](O)C[C@]3(C)[C@]2(C(=O)CO)O1` (some centres undefined) [BUDESONIDE], the “Bacterial Biotransformation” value is listed as “Compound NOT metabolized”.

The next data set in a line: The drug is tested on Eubacterium ventriosum strain: ATCC27560 for biotransformation. The drug concentrations were measured before and after a 12-h incubation by liquid-chromatography-coupled mass spectrometry (LC–MS). Format: ADME. Also noted: dose 2 uM, timepoint 0 vs 12 hours. Particulars: 2 µM.
As for `CCC1(c2ccc(N)cc2)CCC(=O)NC1=O` (centres undefined) [AMINOGLUTETHIMIDE], the “Bacterial Biotransformation” value is listed as “Compound NOT metabolized”.
Still for that read-out and setting: with `CCCC1O[C@@H]2C[C@H]3[C@@H]4CCC5=CC(=O)C=C[C@]5(C)[C@H]4[C@@H](O)C[C@]3(C)[C@]2(C(=O)CO)O1` (some centres undefined) [BUDESONIDE] the entry was “Compound NOT metabolized”.

The next data set can be described thus: The drug is tested on Bifidobacterium breve strain: DSM20213 for biotransformation. The drug concentrations were measured before and after a 12-h incubation by liquid-chromatography-coupled mass spectrometry (LC–MS). Particulars: 2 µM.
Consider `CCC1(c2ccc(N)cc2)CCC(=O)NC1=O` (centres undefined) [AMINOGLUTETHIMIDE], for which the “Bacterial Biotransformation” value is recorded as “Compound NOT metabolized”.
In the case of `CCCC1O[C@@H]2C[C@H]3[C@@H]4CCC5=CC(=O)C=C[C@]5(C)[C@H]4[C@@H](O)C[C@]3(C)[C@]2(C(=O)CO)O1` (some centres undefined) [BUDESONIDE], the “Bacterial Biotransformation” value is reported as “Compound NOT metabolized”.

The conditions of a further data set: roseburia intestinalis, 12 h, 2 µM.
Description: The drug is tested on Roseburia intestinalis strain: L1-82 for biotransformation. The drug concentrations were measured before and after a 12-h incubation by liquid-chromatography-coupled mass spectrometry (LC–MS)
With `CCC1(c2ccc(N)cc2)CCC(=O)NC1=O` (centres undefined) [AMINOGLUTETHIMIDE], the “Bacterial Biotransformation” value is “Compound NOT metabolized”.

The next data set is described as follows: The drug is tested on Bacteroides sp. WH2 strain: WH2 for biotransformation. The drug concentrations were measured before and after a 12-h incubation by liquid-chromatography-coupled mass spectrometry (LC–MS). Particulars: bacteroides sp. wh2, 12 h, 2 µM.
`CCC1(c2ccc(N)cc2)CCC(=O)NC1=O` (centres undefined) [AMINOGLUTETHIMIDE]: the “Bacterial Biotransformation” value is on record as “Compound NOT metabolized”.
Consider `CCCC1O[C@@H]2C[C@H]3[C@@H]4CCC5=CC(=O)C=C[C@]5(C)[C@H]4[C@@H](O)C[C@]3(C)[C@]2(C(=O)CO)O1` (some centres undefined) [BUDESONIDE], for which the “Bacterial Biotransformation” value is on record as “Compound NOT metabolized”.

The next data set can be described thus: The drug is tested on Escherichia coli strain: BW25113 for biotransformation. The drug concentrations were measured before and after a 12-h incubation by liquid-chromatography-coupled mass spectrometry (LC–MS). The note with it: 2 µM.
As for `CCC1(c2ccc(N)cc2)CCC(=O)NC1=O` (centres undefined) [AMINOGLUTETHIMIDE], the “Bacterial Biotransformation” value is “Compound NOT metabolized”.
On to `CCCC1O[C@@H]2C[C@H]3[C@@H]4CCC5=CC(=O)C=C[C@]5(C)[C@H]4[C@@H](O)C[C@]3(C)[C@]2(C(=O)CO)O1` (some centres undefined) [BUDESONIDE], for which the “Bacterial Biotransformation” value is “Compound NOT metabolized”.

The conditions of a further data set: bacteroides thetaiotaomicron, 12 h, 2 µM.
Description: The drug is tested on Bacteroides thetaiotaomicron strain: VPI-5482 for biotransformation. The drug concentrations were measured before and after a 12-h incubation by liquid-chromatography-coupled mass spectrometry (LC–MS)
In the case of `CCCC1O[C@@H]2C[C@H]3[C@@H]4CCC5=CC(=O)C=C[C@]5(C)[C@H]4[C@@H](O)C[C@]3(C)[C@]2(C(=O)CO)O1` (some centres undefined) [BUDESONIDE], the “Bacterial Biotransformation” value is “Compound metabolized”.

For the next data set the following is noted: bacteroides thetaiotaomicron, 12 h, 2 µM. This is another data set of the same source.
Description: The drug is tested on Bacteroides thetaiotaomicron strain: 7330 for biotransformation. The drug concentrations were measured before and after a 12-h incubation by liquid-chromatography-coupled mass spectrometry (LC–MS)
For the compound `CCC1(c2ccc(N)cc2)CCC(=O)NC1=O` (centres undefined) [AMINOGLUTETHIMIDE], the “Bacterial Biotransformation” value is given as “Compound NOT metabolized”.
As for `CCCC1O[C@@H]2C[C@H]3[C@@H]4CCC5=CC(=O)C=C[C@]5(C)[C@H]4[C@@H](O)C[C@]3(C)[C@]2(C(=O)CO)O1` (some centres undefined) [BUDESONIDE], the “Bacterial Biotransformation” value is recorded as “Compound NOT metabolized”.

Another data set in a line: The drug is tested on Dorea formicigenerans strain: ATCC27755 for biotransformation. The drug concentrations were measured before and after a 12-h incubation by liquid-chromatography-coupled mass spectrometry (LC–MS). Particulars: 2 µM.
Consider `CCC1(c2ccc(N)cc2)CCC(=O)NC1=O` (centres undefined) [AMINOGLUTETHIMIDE], for which the “Bacterial Biotransformation” value is “Compound NOT metabolized”.
Consider `CCCC1O[C@@H]2C[C@H]3[C@@H]4CCC5=CC(=O)C=C[C@]5(C)[C@H]4[C@@H](O)C[C@]3(C)[C@]2(C(=O)CO)O1` (some centres undefined) [BUDESONIDE], for which the “Bacterial Biotransformation” value was “Compound NOT metabolized”.

For another data set the following is noted: akkermansia muciniphila, 12 h, 2 µM.
Description: The drug is tested on Akkermansia muciniphila strain: ATCC BAA-835 for biotransformation. The drug concentrations were measured before and after a 12-h incubation by liquid-chromatography-coupled mass spectrometry (LC–MS)
For `CCC1(c2ccc(N)cc2)CCC(=O)NC1=O` (centres undefined) [AMINOGLUTETHIMIDE], the “Bacterial Biotransformation” value is recorded as “Compound NOT metabolized”.
Take `CCCC1O[C@@H]2C[C@H]3[C@@H]4CCC5=CC(=O)C=C[C@]5(C)[C@H]4[C@@H](O)C[C@]3(C)[C@]2(C(=O)CO)O1` (some centres undefined) [BUDESONIDE]: the “Bacterial Biotransformation” value is on record as “Compound NOT metabolized”.

For a further data set the following is noted: bacteroides eggerthii, 12 h, 2 µM.
Description: The drug is tested on Bacteroides eggerthii strain: DSM20697 for biotransformation. The drug concentrations were measured before and after a 12-h incubation by liquid-chromatography-coupled mass spectrometry (LC–MS)
On to `CCC1(c2ccc(N)cc2)CCC(=O)NC1=O` (centres undefined) [AMINOGLUTETHIMIDE], for which the “Bacterial Biotransformation” value is reported as “Compound NOT metabolized”.
On to `CCCC1O[C@@H]2C[C@H]3[C@@H]4CCC5=CC(=O)C=C[C@]5(C)[C@H]4[C@@H](O)C[C@]3(C)[C@]2(C(=O)CO)O1` (some centres undefined) [BUDESONIDE], for which the “Bacterial Biotransformation” value was “Compound metabolized”.

A short description of the next data set: The drug is tested on Clostridium asparagiforme strain: DSM15981 for biotransformation. The drug concentrations were measured before and after a 12-h incubation by liquid-chromatography-coupled mass spectrometry (LC–MS). Particulars: enterocloster asparagiformis, 2 µM. More on the design: dose 2 uM, timepoint 0 vs 12 hours. Format: ADME.
Turning to `CCC1(c2ccc(N)cc2)CCC(=O)NC1=O` (centres undefined) [AMINOGLUTETHIMIDE], the “Bacterial Biotransformation” value is given as “Compound NOT metabolized”.
Turning to `CCCC1O[C@@H]2C[C@H]3[C@@H]4CCC5=CC(=O)C=C[C@]5(C)[C@H]4[C@@H](O)C[C@]3(C)[C@]2(C(=O)CO)O1` (some centres undefined) [BUDESONIDE], the “Bacterial Biotransformation” value is listed as “Compound metabolized”.

Another data set is described as follows: The drug is tested on Blautia luti strain: DSM14534 for biotransformation. The drug concentrations were measured before and after a 12-h incubation by liquid-chromatography-coupled mass spectrometry (LC–MS). The format is ADME. More on the design: dose 2 uM, timepoint 0 vs 12 hours. Particulars: 2 µM.
For the compound `CCC1(c2ccc(N)cc2)CCC(=O)NC1=O` (centres undefined) [AMINOGLUTETHIMIDE], the “Bacterial Biotransformation” value is “Compound NOT metabolized”.
For the compound `CCCC1O[C@@H]2C[C@H]3[C@@H]4CCC5=CC(=O)C=C[C@]5(C)[C@H]4[C@@H](O)C[C@]3(C)[C@]2(C(=O)CO)O1` (some centres undefined) [BUDESONIDE], the “Bacterial Biotransformation” value is reported as “Compound NOT metabolized”.

A short description of another data set: The drug is tested on Collinsella intestinalis strain: DSM13280 for biotransformation. The drug concentrations were measured before and after a 12-h incubation by liquid-chromatography-coupled mass spectrometry (LC–MS). Particulars: 2 µM.
With `CCC1(c2ccc(N)cc2)CCC(=O)NC1=O` (centres undefined) [AMINOGLUTETHIMIDE], the “Bacterial Biotransformation” value is given as “Compound NOT metabolized”.
Same read-out and setting: with `CCCC1O[C@@H]2C[C@H]3[C@@H]4CCC5=CC(=O)C=C[C@]5(C)[C@H]4[C@@H](O)C[C@]3(C)[C@]2(C(=O)CO)O1` (some centres undefined) [BUDESONIDE] the entry was “Compound NOT metabolized”.

Another data set in a line: The drug is tested on Bacteroides fragilis strain: HMW610 for biotransformation. The drug concentrations were measured before and after a 12-h incubation by liquid-chromatography-coupled mass spectrometry (LC–MS). The note with it: 2 µM.
For the compound `CCC1(c2ccc(N)cc2)CCC(=O)NC1=O` (centres undefined) [AMINOGLUTETHIMIDE], the “Bacterial Biotransformation” value is reported as “Compound NOT metabolized”.
On to `CCCC1O[C@@H]2C[C@H]3[C@@H]4CCC5=CC(=O)C=C[C@]5(C)[C@H]4[C@@H](O)C[C@]3(C)[C@]2(C(=O)CO)O1` (some centres undefined) [BUDESONIDE], for which the “Bacterial Biotransformation” value is “Compound metabolized”.

A further data set can be described thus: The drug is tested on Blautia hansenii strain: DSM20583 for biotransformation. The drug concentrations were measured before and after a 12-h incubation by liquid-chromatography-coupled mass spectrometry (LC–MS). The note with it: 2 µM.
As to `CCC1(c2ccc(N)cc2)CCC(=O)NC1=O` (centres undefined) [AMINOGLUTETHIMIDE], the “Bacterial Biotransformation” value is “Compound NOT metabolized”.
`CCCC1O[C@@H]2C[C@H]3[C@@H]4CCC5=CC(=O)C=C[C@]5(C)[C@H]4[C@@H](O)C[C@]3(C)[C@]2(C(=O)CO)O1` (some centres undefined) [BUDESONIDE]: the “Bacterial Biotransformation” value is on record as “Compound metabolized”.
